From patent US7968599B2, “Fast release solid formulation, preparation and use thereof” (Intervet International B.V., priority 2007, dated 2011)

Assay: Dissolution / solubility rate profile, USP apparatus 2 with paddle agitation
Assay type: physicochemical
Settings: Milli-Q water 25° C., paddle 50 rpm, final 0.1 mg/mL florfenicol
Protocol: To determine the solubility profile of different formulations, dissolution was performed using USP apparatus 2 with paddle agitation at 50 rpm. The dissolution medium was Milli-Q water maintained at a temperature of 25° C. The formulations were added directly to the water in the correct amount to achieve a final concentration of 0.1 mg/mL of florfenicol. Aliquots of the resulting solution were withdrawn and analyzed using either UV-VIS spectrophotometry or HPLC, the latter to exclude excipient contribution or degradation of florfenicol. For HPLC analysis, an organic/aqueous mobile phase was used for the separation on a C18, reverse phase column. Detection was performed by UV absorption spectrometry. The percent dissolved was calculated versus an external reference standard prepared at the nominal concentration of the analyte.

percent florfenicol dissolved within 15 minutes (15 minutes): approximately 25% | percent florfenicol dissolved within 60 minutes (60 minutes): approximately 43%
SMILES: CS(=O)(=O)c1ccc([C@@H](O)[C@@H](CF)NC(=O)C(Cl)Cl)cc1 (relative stereo) [florfenicol, [R-(R*,S*)]-2,2-Dichloro-N-[1-(fluoromethyl)-2-hydroxy-2-[4-(methylsulfonyl)phenyl]-ethyl]acetamide]
